# Results from patent publication US8173654B2, “Triazolopyridazine compounds” (Janssen Pharmaceutica N.V., priority 2005, dated 2012).
# pIC50: −log10 of the molar value.
# Molecular target: c-Met (Homo sapiens, UniProt P08581)
# Assay: Delfia autophosphorylation kinase assay on the c-Met
# Format: biochemical
# Design: The purified His6 tagged cytoplasmic domain of c-Met was diluted to a concentration of 500 ng/ml; host or cells: Sf9 insect cells (baculovirus, pFastBacHTa)
# Conditions: His6 tagged cytoplasmic domain of c-Met, 1 μM ATP; read-out: cMet Delfia autophos IC-50
# Method in brief: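 Time-resolved fluorescence tracked autophosphorylation of the His6-tagged c-Met cytoplasmic domain, dispensed at 500 ng/ml onto nickel-chelate plates. Reaction buffer held 1 μM ATP, 10 mM MgCl2, vanadate and DTT at pH 8.0, for 1 h at room temperature.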
# Sequence of c-Met (P08581 956-1390 limits assumed): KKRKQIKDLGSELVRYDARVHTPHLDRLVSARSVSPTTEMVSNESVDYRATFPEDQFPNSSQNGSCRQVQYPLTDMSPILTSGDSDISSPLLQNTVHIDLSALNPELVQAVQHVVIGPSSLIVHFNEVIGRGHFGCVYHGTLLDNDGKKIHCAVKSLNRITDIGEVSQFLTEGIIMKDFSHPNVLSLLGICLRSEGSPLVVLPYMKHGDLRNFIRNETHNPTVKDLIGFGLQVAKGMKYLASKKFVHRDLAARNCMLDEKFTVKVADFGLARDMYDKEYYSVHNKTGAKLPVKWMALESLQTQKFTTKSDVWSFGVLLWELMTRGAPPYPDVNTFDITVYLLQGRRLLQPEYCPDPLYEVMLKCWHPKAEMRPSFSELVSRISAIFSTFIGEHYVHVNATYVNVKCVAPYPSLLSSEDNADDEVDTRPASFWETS
structure (smiles),measurement,value
"Cn1cc(-c2ccc3nnc(C(F)(F)c4ccc5ncccc5c4)n3n2)cn1 [Example 61, 6-{Difluoro-[6-(1-methyl-1H-pyrazol-4-yl)-[1,2,4]triazolo[4,3-b]pyridazin-3-yl]-methyl}-quinoline]",pIC50,9.00
